Results as given in PMC10754745, “In silico prediction and in vitro assessment of novel heterocyclics with antimalarial activity” (Parasitology Research, 2023).
Values belong to the compound of their own block, whether it stands above or below them.

Key:
P. falciparum = test system: P. falciparum; parameters: method as in Shahinas et al. [2013]; details: in vitro against P. falciparum; ref Shahinas et al. [2013]; cited from earlier work
Galleria mellonella = assay: In vivo toxicity in Galleria mellonella larvae; parameters: G. mellonella Toxicity class: scale not given here; details: class from LD50 in larvae
Experimental: (§1) In vivo toxicity was performed using the invertebrate Galleria mellonella model. Healthy, beige larvae weighing 200–250 mg were obtained from the Entomology laboratory at the University and selected for toxicity assays. Groups of ten six-instar larvae were inoculated with 10 μL or 20 μL of each compound at concentrations equivalent to 3000 mg/kg and incubated at 37 °C in darkness. […] The larvae were initially injected with 1000 mg/kg, and if most larvae (> 60%) survived after 5 days, the assay was performed using higher doses up to 3000 mg/kg (Piatek et al. [2021]).

[1] = In vivo toxicity in Galleria mellonella larvae; parameters: G. mellonella Toxicity class: scale not given here; details: Galleria mellonella, in vivo, other: injection; larvae, injection, survival monitored 5 days; read-out: G. mellonella LD50
Experimental: as §1

P. falciparum 3D7 = assay: Growth inhibition of P. falciparum 3D7 cultures, SYBR Green assay; type: cell-based, Plasmodium falciparum; details: P. falciparum 3D7, 72 h, triplicate
Experimental: Antimalarial activity of the selected compounds was assessed by growth inhibition assays. P. falciparum 3D7 parasites (a chloroquine-sensitive strain) kindly supplied by the Biodefense and Emerging Infections Research Resources Repository (BEI resources, NIAID, NIH, USA) were cultured by the Trager-Jensen method (Trager and Jensen [1976]; Moll et al. [2013]) with modifications. Briefly, parasite-infected red blood cells (RBCs) were kept in continuous culture in complete culture medium (CCM) containing RPMI 1640 (GIBCO), 25 mM hydroxypipazine-N’-2-ethane sulfonic acid (HEPES, Sigma), and 25 μg/mL gentamicin. […] [2013]). Parasite growth was monitored by preparing Giemsa-stained smears. The parasitemia was determined by examination of at least 10 high power magnification fields (hpf) (Moll et al. [2013]), and levels of parasitemia were kept between 5 and 10%. Artemisinin (Sigma) and chloroquine diphosphate salt (Sigma) were used as control drugs. […] Susceptibility assays were performed by the SYBR Green method with modifications (Kato et al. [2018]). Briefly, P. falciparum-infected RBCs cultured under standard conditions were plated at about 2% parasitemia (2% hematocrit), in 96-well microplates, and 10 μM of each compound was added; the final DMSO concentration was less than 0.1%. Parasites were initially incubated for 72 h before addition of lysis buffer (20mM Tris-HCl, 5mM EDTA, 0.008% saponin, 0.08% Triton X-100) supplemented with 0.04% SYBR™ Green I Nucleic Acid (10,000 × in DMSO, Invitrogen), then the microplates were returned to culture for 4 h at room temperature and read in a microplate fluorimeter (Cytation 3 M, Biotek) at excitation 485 nm–emission 530 nm. A control drug for total growth inhibition, a non-drug well and uninfected RBCs were included as positive and negative controls, respectively. The percentage (%) of inhibition was calculated as follows: 1-(fluorescence of treated/nontreated cultures) × 100. […] To do this, parasite cultures were exposed to serial two-fold dilutions of the test compounds ranging from 10 to 0.078 μM. Controls of uninfected RBCs and CQ-treated infected RBCs were included, and the assays were performed in triplicate.

human RBCs = assay: Hemolytic activity test; type: cell-based; details: human RBCs 2% hematocrit, 72 h, 37 °C, tested at 200, 100, 50, 25 μM
Experimental: The ability to induce membrane damage was assessed by testing the hemolytic activity of those compounds showing inhibition of parasite growth. The assay was adapted from Sousa et al. ([2021]) with modifications. Briefly, 180 μL of human RBCs adjusted to 2% hematocrit in phosphate buffered saline (PBS) were placed into a 96-well microplate and subsequently exposed to 200 μM of each selected compound. As a positive control, 20 μL of 1% sodium dodecyl sulfate (SDS) was added, and a non-drug well was included as a negative control. Free hemoglobin was measured after 72 h of incubation at 37 °C by spectrophotometry at 540 nm (Cytation 3 M, Biotek). Nonspecific absorbance was corrected by subtracting the blank (PBS). Determinations were done by triplicate in at least two independent experiments. Compounds with hemolytic activity at 200 μM were further tested at 100 μM, 50 μM, and 25 μM dilutions.

[2] = Plasmodium falciparum, 3D7, 72 h

SMILES: CC(C)NCCCn1c(Sc2cc3c(cc2I)OCO3)nc2c(N)ncnc21 [PU-H71]
IC50 (P. falciparum): 110 nM

SMILES: O=C(/C=C/c1cccc(Nc2ccnc3cc(Cl)ccc23)c1)c1ccc2c(c1)OCO2 [UV7, Quinolinyl-amino chalcone]
G. mellonella Toxicity class (Galleria mellonella): 5
LD50 at 5 days [1]: 2000 mg/kg
IC50 (P. falciparum 3D7): ~1000 nM
IC50 (P. falciparum 3D7; listed as 7): 1070 ± 200 nM
IC50 (P. falciparum 3D7; [2]): > 1000 nM
Hemolytic activity (human RBCs): > 200 µM

IC50 (P. falciparum 3D7; [2]): 1580 to 2750 nM
SMILES: CC(=O)N1N=C(c2cccc(Nc3ccncc3)c2)CC1c1ccc(Cl)cc1 (stereo not drawn) [UV285]

SMILES: CC(=O)N1N=C(c2cccc(Nc3ccncc3)c2)CC1c1ccc(Br)cc1 (stereo not drawn) [UV286]
G. mellonella Toxicity class (Galleria mellonella): 4
LD50 at 5 days [1]: 1500 mg/kg
IC50 (P. falciparum 3D7): < 1000 nM
IC50 (P. falciparum 3D7; listed as 286): 444 ± 100 nM
Hemolytic activity (human RBCs): >200 µM

IC50 (P. falciparum 3D7; [2]): 1580 to 2750 nM
SMILES: COc1ccc(C2CC(c3cccc(Nc4ccncc4)c3)=NN2C(C)=O)cc1 (stereo not drawn) [UV287]

IC50 (P. falciparum 3D7; [2]): 1580 to 2750 nM
SMILES: CC(=O)N1N=C(c2cccc(Nc3ccncc3)c2)CC1c1ccc(F)cc1 (stereo not drawn) [UV288]

IC50 (P. falciparum 3D7; [2]): 1580 to 2750 nM
SMILES: CC(=O)N1N=C(c2cccc(Nc3ccncc3)c2)CC1c1ccc2c(c1)OCO2 (stereo not drawn) [UV290]

IC50 (P. falciparum 3D7; [2]): 1580 to 2750 nM
SMILES: CC(=O)N1N=C(c2cccc(Nc3ccncc3)c2)CC1c1ccc(C)cc1 (stereo not drawn) [UV291]

SMILES: CC(=O)N1N=C(c2cccc(Nc3ccncc3)c2)CC1c1ccccc1 (stereo not drawn) [UV292]
G. mellonella Toxicity class (Galleria mellonella): 5
LD50 at 5 days [1]: 3000 mg/kg
IC50 (P. falciparum 3D7): 660 ± 200 nM
IC50 (P. falciparum 3D7; [2]): < 1000 nM
Hemolytic activity (human RBCs): >100 µM

SMILES: COc1ccc(C2CC(c3cccc(Nc4ccncc4)c3)=NN2c2ccccc2)cc1 (stereo not drawn) [UV296]
G. mellonella Toxicity class (Galleria mellonella): 5
LD50 at 5 days [1]: 2000 mg/kg
IC50 (P. falciparum 3D7): 629 ± 100 nM
IC50 (P. falciparum 3D7; [2]): < 1000 nM
Hemolytic activity (human RBCs): induced RBC hemolysis at lower concentrations
Hemolytic activity (human RBCs; listed as 296): >25 µM

SMILES: COc1cc(C2CC(c3cccc(Nc4ccncc4)c3)=NN2c2ccccc2)cc(OC)c1OC (stereo not drawn) [UV297]
G. mellonella Toxicity class (Galleria mellonella): 5
LD50 at 5 days [1]: 2000 mg/kg
IC50 (P. falciparum 3D7): 991 ± 280 nM
IC50 (P. falciparum 3D7; [2]): < 1000 nM
Hemolytic activity (human RBCs): >200 µM

SMILES: Clc1ccc(N2N=C(c3cccc(Nc4ccncc4)c3)CC2c2ccc3c(c2)OCO3)cc1 (stereo not drawn) [UV306, 4-(pyridyl-aminophenyl)-methyledioxyphenyl-N-(4-chlorophenyl)pyrazoline]
G. mellonella Toxicity class (Galleria mellonella): 5
LD50 at 5 days [1]: 2000 mg/kg
IC50 (P. falciparum 3D7): 710 ± 100 nM
IC50 (P. falciparum 3D7; [2]): < 1000 nM
Hemolytic activity (human RBCs): 25 µM

SMILES: Nc1ncnc2c1N=C(c1cccc(Nc3ccncc3)c1)CC(c1ccccc1)N2 (stereo not drawn) [UV712, Pyridyl-amino-pyrimido-diazepine]
G. mellonella Toxicity class (Galleria mellonella): 4
LD50 at 5 days [1]: 1000 mg/kg
IC50 (P. falciparum 3D7): ~1000 nM
IC50 (P. falciparum 3D7; listed as 712): 1080 ± 200 nM
IC50 (P. falciparum 3D7; [2]): > 1000 nM
Hemolytic activity (human RBCs): >200 µM

SMILES: Nc1nc(N)c2c(n1)NC(c1ccc(Cl)cc1)CC(c1cccc(Nc3ccncc3)c1)=N2 (stereo not drawn) [UV797, Pyridyl-amino-pyrimido-diazepine]
G. mellonella Toxicity class (Galleria mellonella): 5
LD50 at 5 days [1]: 2000 mg/kg
IC50 (P. falciparum 3D7): 353 ± 19 nM
Hemolytic activity (human RBCs): > 200 µM

SMILES: Cc1ccc(C2CC(c3cccc(Nc4ccncc4)c3)=Nc3c(N)nc(N)nc3N2)cc1 (stereo not drawn) [UV801, Pyridyl-amino- pyrimido- diazepine]
G. mellonella Toxicity class (Galleria mellonella): 5
LD50 at 5 days [1]: 2000 mg/kg
IC50 (P. falciparum 3D7): 537 ± 30 nM
IC50 (P. falciparum 3D7; [2]): < 1000 nM
Hemolytic activity (human RBCs): >200 µM

SMILES: Nc1nc(N)c2c(n1)NC(c1ccccc1)CC(c1cccc(Nc3ccncc3)c1)=N2 (stereo not drawn) [UV802, Pyridyl-amino-pyrimido-diazepina]
G. mellonella Toxicity class (Galleria mellonella): 5
LD50 at 5 days [1]: 2000 mg/kg
IC50 (P. falciparum 3D7): 178 ± 40 nM
Hemolytic activity (human RBCs): > 200 µM
